14 compounds from patent publication US8822414B2, “Heterocyclic compounds suitable for the treatment of dyslipidemia” (Cadila Healthcare Limited, priority 2010, dated 2014) can be followed below.

What is called inhibition is how much of the control response was suppressed.

The test system of experiment [1] is High Fat Diet C57 Mice. The experiment can be described thus: LDL-C lowering activity in high fat diet C57 mice. The experiment is classed as in vivo. Particulars: C57 mice on high fat diet, dose 30 mg, orally once a day, day 28 of treatment. The method, then: The in-vivo LDL-c lowering for test compound was tested in C57 mice which were kept on high fat diet for 4 weeks and the blood was collected by retro-orbital sinus puncture method under light ether anesthesia on day 0 (pretreatment). Animal are grouped based on LDL-C levels, after that 4-6 week treatment with vehicle or test compound orally at a dose of 30 mpk dose once a day was given. On completion of treatment on day 28 of the treatment the blood was collected for LDL-C levels measurement. The percent change in LDL-C in test compound group Vs Vehicle group was calculated.

In experiment [2] the target is pro-protein convertase of the subtype nine binding to recombinant LDLR-AB domain (Homo sapiens, UniProt Q8NBP7). Nature of the experiment: in vitro quantitative solid phase binding assay (ELISA) of the subtype nine pro-protein convertase to immobilized LDLR. Particulars: for inhibition at 1 µM: Concentration 1 μM; for inhibition at 10 µM: Concentration 10 μM; for inhibition at 100 µM: Concentration 100 μM. The method, then:
The in vitro binding assay described hereinafter is a quantitative solid phase binding assay for determining the efficacy of the compounds. Plates were pre-coated with a recombinant LDLR-AB domain, which binds to the gene pro-protein convertase of the subtype nine. Test compound at different concentrations was added to the subtype gene and added to LDLR immobilized on the wells. The amount of bound gene is measured by binding it with biotinylated anti-His-tag monoclonal antibody, followed by binding with horseradish peroxidase conjugated streptavidin substrate. The color was quantified by ELISA reader at […] which reflects the relative amount of “the gene” that binds to LDLR in presence and absence of the inhibitor. EC50 values were calculated by nonlinear regression analysis using graph pad prism software. Each concentration point represents values in duplicates.

Chain of pro-protein convertase of the subtype nine binding to recombinant LDLR-AB domain (Q8NBP7 153-692): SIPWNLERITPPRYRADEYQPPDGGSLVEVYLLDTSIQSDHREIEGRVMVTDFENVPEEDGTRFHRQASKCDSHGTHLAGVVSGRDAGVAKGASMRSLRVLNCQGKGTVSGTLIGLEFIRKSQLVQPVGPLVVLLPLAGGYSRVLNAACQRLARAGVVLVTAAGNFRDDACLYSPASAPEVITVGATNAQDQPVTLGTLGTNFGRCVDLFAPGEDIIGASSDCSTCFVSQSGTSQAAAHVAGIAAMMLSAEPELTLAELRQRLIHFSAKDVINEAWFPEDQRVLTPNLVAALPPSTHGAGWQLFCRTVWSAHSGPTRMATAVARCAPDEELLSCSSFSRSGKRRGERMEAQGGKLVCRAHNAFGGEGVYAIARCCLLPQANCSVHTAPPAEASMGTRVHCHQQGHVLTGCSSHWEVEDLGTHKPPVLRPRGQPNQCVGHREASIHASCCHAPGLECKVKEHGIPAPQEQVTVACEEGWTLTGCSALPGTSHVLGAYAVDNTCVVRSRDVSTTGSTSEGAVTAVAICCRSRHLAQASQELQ
Chain of pro-protein convertase of the subtype nine binding to recombinant LDLR-AB domain (Q8NBP7 31-152 partner limits assumed): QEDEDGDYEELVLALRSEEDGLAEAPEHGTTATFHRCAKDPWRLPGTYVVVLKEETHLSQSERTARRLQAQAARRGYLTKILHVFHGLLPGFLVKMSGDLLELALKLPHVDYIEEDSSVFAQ

`CCC(=NOCc1ccc(C(F)(F)F)cc1)c1ccc(OCC(=O)NCC2CCOCC2)cc1` [Example 1, N-((tetrahydro-2H-pyran-4-yl)methyl)-2-(4-(1-(((4-(trifluoromethyl)benzyl)oxy)imino)propyl)phenoxy)acetamide]: in experiment [1], the “% Change Vs Vehicle Control LDL-C” value is −48.8 ± 4.2% and the “% Change Vs Vehicle Control TC” value is −11.8 ± 2.7%. Further, in experiment [2], the inhibition at 1 µM is 29%, the inhibition at 10 µM was found to be 35% and the inhibition at 100 µM was 57%.
Consider `CC(=NOCc1ccc(C(F)(F)F)cc1)c1ccc(OCC(=O)NCC2CCOCC2)cc1` [Example 18, N-((tetrahydro-2H-pyran-4-yl)methyl)-2-(4-(1-(((4-(trifluoromethyl)benzyl)oxy)imino)ethyl)phenoxy)acetamide], for which, in experiment [1], the “% Change Vs Vehicle Control LDL-C” value was −75.2 ± 3.5% and the “% Change Vs Vehicle Control TC” value is −41.6 ± 1.9%. In addition, in experiment [2], the inhibition at 1 µM turned out to be 16%, the inhibition at 10 µM is 38% and the inhibition at 100 µM turned out to be 63%.
The like results for `CCC(=NOCc1ccc(C(F)(F)F)cc1)c1ccc(OCC(=O)NCC2CCOCC2)nc1` [Example 22, N-((tetrahydro-2H-pyran-4-yl)methyl)-2-((5-(1-(((4-(trifluoromethyl)benzyl)oxy)imino)propyl)pyridin-2-yl)oxy)acetamide] were, in that order, −64.6 ± 4.1%, −21.5 ± 2.8%, 29%, 46% and 46%.
Take `CC(=NOCc1ccc(C(F)(F)F)cc1)c1ccc(OCC(=O)NCC2CCOCC2)nc1` [Example 3, N-((tetrahydro-2H-pyran-4-yl)methyl)-2-((5-(1-(((4-(trifluoromethyl)benzyl)oxy)imino)ethyl)pyridin-2-yl)oxy)acetamide]: in experiment [1], the “% Change Vs Vehicle Control LDL-C” value is −74.6 ± 2.0% and the “% Change Vs Vehicle Control TC” value is given as −33.6 ± 2.0%. Further, in experiment [2], the inhibition at 1 µM was 28%, the inhibition at 10 µM was 41% and the inhibition at 100 µM was 54%.
`COc1ccc(CON=C(Cc2ccccc2)c2ccc(OCC(=O)NCC3CCOCC3)cc2)cc1` [Example 41, 2-(4-(1-(((4-methoxybenzyl)oxy)imino)-2-phenylethyl)phenoxy)-N-((tetrahydro-2H-pyran-4-yl)methyl)acetamide]: in experiment [2], the inhibition at 1 µM is 10% and the inhibition at 100 µM stood at 19%.
Regarding `Cc1cc(C(Cc2ccccc2)=NOCc2ccc(F)cc2)ccc1OCC(=O)NCC1CCOCC1` [Example 34, 2-(4-(1-(((4-fluorobenzyl)oxy)imino)-2-phenylethyl)-2-methylphenoxy)-N-((tetrahydro-2H-pyran-4-yl)methyl)acetamide], in experiment [2], the inhibition at 1 µM amounted to 7%, the inhibition at 10 µM worked out at 13% and the inhibition at 100 µM was found to be 32%.
With `Cc1cc(C(Cc2ccsc2)=NOCc2ccc(C(F)(F)F)cc2)ccc1OCC(=O)NCC1CCOCC1` [Example 16, 2-(2-methyl-4-(2-(thiophen-3-yl)-1-(((4-(trifluoromethyl)benzyl)oxy)imino)ethyl)phenoxy)-N-((tetrahydro-2H-pyran-4-yl)methyl)acetamide], in experiment [2], the inhibition at 1 µM came out at 10%, the inhibition at 10 µM stood at 35% and the inhibition at 100 µM worked out at 61%. For the same compound, the inhibition at 5 µM in experiment [2] (Concentration 5 μM) was 21%.
In the case of `O=C(COc1ccc(C(Cc2ccccc2)=NOCc2cccc(C(F)(F)F)c2)cc1)NCC1CCOCC1` [Example 12, 2-(4-(2-phenyl-1-(((3-(trifluoromethyl)benzyl)oxy)imino)ethyl)phenoxy)-N-((tetrahydro-2H-pyran-4-yl)methyl)acetamide], in experiment [2], the inhibition at 1 µM was 19%, the inhibition at 10 µM was 55% and the inhibition at 100 µM came out at 79%.
Regarding `CC(=NOCc1ccc(C(F)(F)F)cc1)c1ccc(NCC(=O)NCC2CCOCC2)nc1` [Example 4, N-((tetrahydro-2H-pyran-4-yl)methyl)-2-((5-(1-(((4-(trifluoromethyl)benzyl)oxy)imino)ethyl)pyridin-2-yl)amino)acetamide], in experiment [2], the inhibition at 1 µM was 34%, the inhibition at 10 µM turned out to be 39% and the inhibition at 100 µM worked out at 51%.
On to `CCC(=NOCc1ccc(S(C)(=O)=O)cc1)c1ccc(OCC(=O)NCC2CCOCC2)cc1` [Example 42, 2-(4-(1-(((4-(methylsulfonyl)benzyl)oxy)imino)propyl)phenoxy)-N-((tetrahydro-2H-pyran-4-yl)methyl)acetamide], for which, in experiment [2], the inhibition at 10 µM was 9% and the inhibition at 100 µM stood at 51%.
As for `O=C(COc1ccc(C(CO)=NOCc2ccc(C(F)(F)F)cc2)cc1)NCC1CCOCC1` [Example 31, 2-(4-(2-hydroxy-1-(((4-(trifluoromethyl)benzyl)oxy)imino)ethyl)phenoxy)-N-((tetrahydro-2H-pyran-4-yl)methyl)acetamide], in experiment [1], the “% Change Vs Vehicle Control LDL-C” value is on record as −30.6 ± 3.6% and the “% Change Vs Vehicle Control TC” value is −3.5 ± 3.4%. Besides, in experiment [2], the inhibition at 1 µM turned out to be 15%, the inhibition at 10 µM was found to be 20% and the inhibition at 100 µM turned out to be 29%.
With `O=C(COc1ccc2c(c1)CCCC2=NOCc1ccc(Cl)cc1)NCC1CCOCC1` [Example 49, 2-((5-(((4-chlorobenzyl)oxy)imino)-5,6,7,8-tetrahydronaphthalen-2-yl)oxy)-N-((tetrahydro-2H-pyran-4-yl)methyl)acetamide], in experiment [2], the inhibition at 10 µM stood at 7% and the inhibition at 100 µM was 11%.
Consider `CCC(=NOCc1ccc(C#N)cc1)c1ccc(OCC(=O)NCC2CCOCC2)nc1` [Example 28, 2-((5-(1-(((4-cyanobenzyl)oxy)imino)propyl)pyridin-2-yl)oxy)-N-((tetrahydro-2H-pyran-4-yl)methyl)acetamide], for which the inhibition at 100 µM in experiment [2] is 23%.
As to `O=C(COc1ccc(C(Cc2ccccc2)=NOCc2ccc(Cl)cc2)cc1)NCC1CCOCC1` [Example 37, 2-(4-(1-(((4-chlorobenzyl)oxy)imino)-2-phenylethyl)phenoxy)-N-((tetrahydro-2H-pyran-4-yl)methyl)acetamide], in experiment [2], the inhibition at 1 µM came out at 20%, the inhibition at 10 µM worked out at 26% and the inhibition at 100 µM was 28%.
